According to patent US5880146A, “Inhibition of IL-12-induced IFN-γ synthesis by specific bis-phenol compounds as a method of immune modulation” (Fuji ImmunoPharmaceuticals Corporation, priority 1995, dated 1999):
Entries after “also recorded” stand apart in the source; their conditions may differ.

Legend:
[1] = system: IL-12 induction of IFN-γ in PHA-activated human PBMC; experiment: Screening assay for compounds which inhibit IL-12 induction of IFN-γ (ELISA); assay type: cell-based; conditions: 5 μg/ml, IL-2 25 U/ml + IL-12 0.5 ng/ml, 48 hr, single test, read-out: % INH of IFNγ
Procedure: Human peripheral blood monocytes (PBMC) were obtained from commercial sources as a leukophoresis from a healthy volunteer and were purified by centrifugation on a Ficoll-Hypaque (Pharmacia) gradient (1700 rpm for 20 min). The "buffy" coat containing the PBMC was diluted with serum-free culture medium (SF-RPMI) to a volume of 50 ml and collected by centrifugation at 1500 rpm for 5 min. Cells were resuspended in cell culture medium containing 10% fetal bovine serum (RPMI-10) and phytohemaglutinin (PHA - 10 μg/ml) at a density of 5×10^6 cells/ml and were cultured for 3 days at 37° C. in a humidified CO2 incubator. The PHA-activated cells were collected by centrifugation, washed three times with an equal volume of SF-RPMI and resuspended in fresh RPMI-10 (1×10^6 cells /ml). Aliquots (100 μl) were dispensed into the wells of multiple 96-well plates to give a final cell number of 10^5 per well. Test compounds, dissolved in dimethyl sulfoxide (DMSO) at 1 mg/ml, were first diluted in culture medium to an intermediate concentration of 20 μg/ml and then were added (50 μwell) to a specific well of the plate for each compound. Stimulation medium (50 μl/well) containing 10% serum, IL-2 and IL-12 was added to final concentrations of 25 U/ml and 0.5 ng/ml, respectively. Control wells receive no IL-2 or IL-12 (negative control) or received both interleukins but no test compound (positive control). The plates were incubated for 48 hr at 37° C. in a CO2 incubator at which time aliquots (20 μl) were removed for analysis of IFN-γ concentration by ELISA. A quantitative ELISA was developed by coating 96-well plates with an mouse monoclonal antibody against human IFN-γ, 1 μg/ml in phosphate buffered saline (PBS) (Pestka Biological Laboratories), overnight at 4° C. Unbound antibody was washed off by washing three times with PBS. Non-specific antibody binding was blocked with a solution of 1% bovine serum albumin (BSA) and 1% goat serum in PBS (150 μl/well) which was incubated for 2 hr at 37° C. After washing the blocked plates four times with PBS, test samples and dilutions of the IFN-γ standard are added in a final volume of 100 μl/well. Following an overnight incubation at 4° C., the plates are washed four times with PBS, and a polyclonal rabbit antiserum against human IFN-γ (1/10000 dilution--Petska Biological Laboratories) is added. After an additional incubation for 1 hr at 37° C. and four washes with PBS, a polyclonal donkey anti-rabbit detecting antibody, conjugated to horseradish peroxidase (1/700 dilution--Petska Biological Laboratories) is added for 1 hr at 37° C. The plates are then washed four times with PBS and 100 μl of K-blue substrate E(ILISA Technologies, Neogen Corp.) is added until the color in the wells containing the standard curve is sufficiently developed, at which time 100 μl of "Red-stop" solution (ELISA Technologies) is added. The absorbance of the solution within each well of the plate is then read at 650 nm using an ELISA plate reader (Dynatech MR7000). The amount of IFN-γ is calculated by comparing the optical density of the test sample with a standard curve derived from the dilutions of the control IFN-y. The amount of IFN-γ that is induced in the presence of both IL-2 and IL-12 generally ranges from 1200-2000 pg/ml while the amount produced in the absence of IL-12 is generally less than 50 pg/ml. Experimental data are shown in Table 2 which discloses a) the percent inhibition of IFNγ production, relative to a […], when the cells have been treated with a bis-compound at a final concentration of 5 μg/ml of the listed bis-compound (%INH or IFNγ) and b) the percent of cells which are viable after the treatment with 5 μg/ml of the various bis-compounds, determined by adding MTS to the media (% Viability). MTS is a chemical chromophore that is metabolized in the mitochondria of viable cells to produce a color which increases in intensity in proportion to the numbers of viable cells. […]

[2] = Cell viability (MTS) after treatment with bis-compound; assay type: cell-based; conditions: human, pha-activated pbmc, 5 μg/ml
Procedure: Human peripheral blood monocytes (PBMC) were obtained from commercial sources as a leukophoresis from a healthy volunteer and were purified by centrifugation on a Ficoll-Hypaque (Pharmacia) gradient (1700 rpm for 20 min). The "buffy" coat containing the PBMC was diluted with serum-free culture medium (SF-RPMI) to a volume of 50 ml and collected by centrifugation at 1500 rpm for 5 min. Cells were resuspended in cell culture medium containing 10% fetal bovine serum (RPMI-10) and phytohemaglutinin (PHA - 10 μg/ml) at a density of 5×10^6 cells/ml and were cultured for 3 days at 37° C. in a humidified CO2 incubator. The PHA-activated cells were collected by centrifugation, washed three times with an equal volume of SF-RPMI and resuspended in fresh RPMI-10 (1×10^6 cells /ml). Aliquots (100 μl) were dispensed into the wells of multiple 96-well plates to give a final cell number of 10^5 per well. Test compounds, dissolved in dimethyl sulfoxide (DMSO) at 1 mg/ml, were first diluted in culture medium to an intermediate concentration of 20 μg/ml and then were added (50 μwell) to a specific well of the plate for each compound. Stimulation medium (50 μl/well) containing 10% serum, IL-2 and IL-12 was added to final concentrations of 25 U/ml and 0.5 ng/ml, respectively. Control wells receive no IL-2 or IL-12 (negative control) or received both interleukins but no test compound (positive control). The plates were incubated for 48 hr at 37° C. in a CO2 incubator at which time aliquots (20 μl) were removed for analysis of IFN-γ concentration by ELISA. A quantitative ELISA was developed by coating 96-well plates with an mouse monoclonal antibody against human IFN-γ, 1 μg/ml in phosphate buffered saline (PBS) (Pestka Biological Laboratories), overnight at 4° C. Unbound antibody was washed off by washing three times with PBS. Non-specific antibody binding was blocked with a solution of 1% bovine serum albumin (BSA) and 1% goat serum in PBS (150 μl/well) which was incubated for 2 hr at 37° C. After washing the blocked plates four times with PBS, test samples and dilutions of the IFN-γ standard are added in a final volume of 100 μl/well. Following an overnight incubation at 4° C., the plates are washed four times with PBS, and a polyclonal rabbit antiserum against human IFN-γ (1/10000 dilution--Petska Biological Laboratories) is added. After an additional incubation for 1 hr at 37° C. and four washes with PBS, a polyclonal donkey anti-rabbit detecting antibody, conjugated to horseradish peroxidase (1/700 dilution--Petska Biological Laboratories) is added for 1 hr at 37° C. The plates are then washed four times with PBS and 100 μl of K-blue substrate E(ILISA Technologies, Neogen Corp.) is added until the color in the wells containing the standard curve is sufficiently developed, at which time 100 μl of "Red-stop" solution (ELISA Technologies) is added. The absorbance of the solution within each well of the plate is then read at 650 nm using an ELISA plate reader (Dynatech MR7000). The amount of IFN-γ is calculated by comparing the optical density of the test sample with a standard curve derived from the dilutions of the control IFN-y. […] MTS is a chemical chromophore that is metabolized in the mitochondria of viable cells to produce a color which increases in intensity in proportion to the numbers of viable cells. The absorbance of the cell culture can be compared to control cultures in order to determine the percent viability.

mice = experiment: Toxicity of bis-compounds after single systemic dose; assay type: in vivo; conditions: 16% cremaphor
[3] = as above; assay type: in vivo; conditions: mouse, in vivo, 16% cremaphor, single dose
[4] = system: T cell response of human PBMC to allogenic stimulation by Namalwa cells; experiment: Mixed Lymphocyte Reaction (proliferation and IFN-γ secretion); assay type: cell-based; conditions: 6 days; FIGS. 1-3
Procedure: This reaction measures the T cell response to allogenic stimulation by a mismatch of class II histocompatability antigens. This is triggered through the T cell receptor and activates the T cell to secrete and proliferate in response to endogenous IL-2. IFN-γ is also made in response to this stimulation and accumulates in the culture medium. Compounds are tested for their ability to block the proliferation and response to antigenic stimulation as well as their ability to produce IFN-γ as follows. A human B cell ine expressing class II antigen, Namalwa (American Type Culture Collection), is incubated for 2 hr at 37° C. in RPMI-10 containing mitomycin C (50 μg/ml). These cells are washed four times by centrifugation and resuspension (10^6 cells/ml) in SF-RPMI medium and are added to the wells of 96-well plate (50 μl/well) as stimulators. Mitomycin treatment prevents these cells from proliferating in the assay. Fresh PBMC are prepared as described above in example 1, but are not activated with PHA. Instead they are resuspended at 10^6 cells/ml and 100 μl is added per well. Dilutions of test compounds are added (50 μl/well) to give a final volume of 200 μl and the plates are incubated for 6 days at 37° C. During the last 18 hr, ^3 H-thymidine (DuPont-NEN- 1 μCi/well) is added as a measure of cell proliferation, cultures are collected using a cell harvester (Packard), and scintillation fluid is added prior to counting in a Packard Top Count scintillation counter. A sample of medium is also collected for measurement of IFN-γ production prior to the addition of ^3 H-thymidine for use as a negative control.

[5] = 100 mg/kg IV, 20% DMSO, 10 mg/ml
[6] = 150 mg/kg IV, 20% DMSO, 10 mg/ml
[7] = iv, 20% DMSO, conc. sol. 10 mg/ml
[8] = 80 mg/kg IV, 20% DMSO, 10 mg/ml

| Compound | inhibition at 5 µg/mL [1] | viability [2] | Results (Dead/Alive) (mice; [5]) | Results (Dead/Alive) (mice; [6]) | LD50 [3, 7] | Results (Dead/Alive) (mice; [8]) | Results (Dead/Alive) (mice; 200 mg/kg IV, 20% DMSO, 15 mg/ml) | LD50 ([3]; iv, 20% DMSO, conc. sol. 15 mg/ml) | LD50 ([3]; IV, 20% DMSO, conc. sol. 10 mg/ml) | inhibition of IFN-γ secretion versus cell proliferation (in words) [4] | Results (Dead/Alive) (mice; 100 mg/kg IV, 20% EGME, 10 mg/ml) | Results (Dead/Alive) (mice; 150 mg/kg IV, 20% EGME, 10 mg/ml) | LD50 ([3]; iv, 20% EGME, conc. sol. 10 mg/ml) |
| --- | --- | --- | --- | --- | --- | --- | --- | --- | --- | --- | --- | --- | --- |
| Cc1cc(C)c(O)c(Cc2cc(C)cc(C)c2O)c1 [Compound 51850] | 77% | 97% | Alive | Alive | > 150 mg/kg |  |  |  |  |  |  |  |  |
| CCCCCCC(c1cc(C)cc(C)c1O)c1cc(C)cc(C)c1O [Compound 54015] | 96% | 34% |  |  | > 80 mg/kg | Alive |  |  |  |  |  |  |  |
| Cc1cc(C(CCc2ccccc2)c2cc(C)cc(C(C)(C)C)c2O)c(O)c(C(C)(C)C)c1 [Compound 54016] | 26% | 98% | Alive | Alive | > 150 mg/kg |  |  |  |  |  |  |  |  |
| Cc1cc(C)c(O)c(C(CCCCCCC(C)C)c2cc(C)cc(C)c2O)c1 [Compound 8302] | 95% | 100% | Alive | Alive | > 150 mg/kg |  | Alive 1; also recorded: Dead 1 | 200 mg/kg |  |  |  |  |  |
| CCCCC(C)(c1cc(C)c(O)c(C)c1)c1cc(C)c(O)c(C)c1 [Compound 52782] | 102% | 116% |  |  |  | Dead |  |  | < 80 mg/kg |  |  |  |  |
| CCCCCC(c1cc(C)cc(C)c1O)c1cc(C)cc(C)c1O [Compound 54019] | 77% | 101% | Alive | Dead | 100 to 150 mg/kg |  |  |  |  |  |  |  |  |
| Nc1nc2nn[nH]c2c(=O)[nH]1 [Compound 8-azaguanine, 8-azaguanine, reference compound] |  |  |  |  |  |  |  |  |  | general immunosuppressant |  |  |  |
| CCC(C)(c1ccc(O)c(C)c1)c1ccc(O)c(C)c1 [Compound 54003] | 101% | 85% | Alive | Dead | 100 to 150 mg/kg |  |  |  |  |  |  |  |  |
| CCCC(C)(c1cc(C)c(O)c(C)c1)c1cc(C)c(O)c(C)c1 [Compound 54064] | 79% | 112% | Alive | Dead | 100 to 150 mg/kg |  |  |  |  |  |  |  |  |
| CCCCC(c1cc(C)cc(C(C)(C)C)c1O)c1cc(C)cc(C(C)(C)C)c1O [Compound 54020] | 69% | 95% |  |  |  |  |  |  |  |  | Alive | Dead | 100 to 150 mg/kg |
